Data on 4 molecules can be found in patent US20230141887A1, “CRYSTAL FORM OF DIAZASPIROPYRAN COMPOUND” (MEDSHINE DISCOVERY INC., priority 2020, published 2023).

Data set [1] is described as follows: In vivo pharmacokinetic assay in dogs. More on the design: species or system Male Beagle dogs. The following applies: Oral, 30 mg/kg. The procedure: Male Beagle dogs older than 6 months of age were selected. On the day of the assay, the animals were given the corresponding compound by single injection in the cephalic or saphenous vein in a volume of 1 mL/kg for the intravenous group; and by single gavage in a volume of 5 mL/kg for the oral group. The animals were weighed before administration and the dosing volume of the compound was calculated based on their body weight. About 0.5 mL of whole blood was collected from the cephalic or saphenous vein at each time point to prepare plasma for determination of concentrations by high performance liquid chromatography-tandem mass spectrometry (LC-MS/MS). Plasma concentrations were processed using non-compartment model of WinNonlin™ Version 6.3 or above (Pharsight, Mountain View, Calif.) pharmacokinetic software, and pharmacokinetic parameters were calculated using the linear log trapezoidal method.

Data set [2] in a line: In vivo pharmacokinetic assay in rats. More on the design: species or system SD male rats. The procedure: SD male rats aged 7 to 10 weeks were selected. The rats were fasted for at least 12 hours before the administration, and resumed feeding 4 hours after the administration. The rats had free access to water throughout the assay period.
(§1) On the day of the assay, the animals in the intravenous group were administrated the corresponding compound through a single injection in the tail vein at an administration volume of 5 mL/kg; the oral group were administrated the corresponding compound through a single intragastric gavage at an administration volume of 10 mL/kg. The animals were weighed before administration, and the administration volume was calculated based on the body weight. The time for collecting samples was: 0.083 (the injection group), 0.25, 0.5, 1, 2, 4, 6, 8, 24 h. About 200 μL of whole blood was collected from the jugular vein at each time point to prepare plasma for concentration determination by high-performance liquid chromatography-tandem mass spectrometry (LC-MS/MS). All animals were euthanized by CO2 anesthesia after collecting the PK samples at the last time point. The plasma concentrations were processed by non-compartmental model of WinNonlin™ Version 6.3 (Pharsight, Mountain View, Calif.) pharmacokinetic software, and the pharmacokinetic parameters were calculated by the linear logarithm trapezoidal method.

The nature of data set [3]: Assay of solubility (37° C., 24 hours stirring, HPLC). In kind it is physicochemical. Here is the method: Assay method: The crystal form C of the compound of formula (I) was weighed and added to a 4 mL glass vial, and then 2 mL of solvent was added. The mixture was mixed well and a magnet bar was added to the above suspension. The suspension was stirred on a heater with magnetic stirring (37° C., protected from light). After 24 hours of stirring, a sample was taken. The resulting sample solution was quickly centrifuged. The supernatant was diluted to the appropriate multiple, and the concentration was determined by HPLC (unit: mg/mL).

Data set [4] has as its system Ba/F3-TEL-FLT3-D835Y subcutaneous allograft tumor. The data set is described as follows: Pharmacodynamics assay of Ba/F3-TEL-FLT3-D835Y cells in mice with subcutaneous allograft tumor. To be noted: for Average tumor volume Day 0: Day 0, before dosing; for % Inhibition rate / Average tumor volume Day 15: Oral, Once a day. The class given is in vivo. The procedure: The efficacy of the assay compounds in the BALB/c nude mouse model of subcutaneous allografts of Ba/F3-TEL-FLT3-D835Y cells was evaluated in vivo.
Ba/F3-TEL-FLT3-D835Y cell line was cultured in 1640 medium supplemented with 10% fetal bovine serum and 1% double antibody at 37° C. and 5% CO2, and passaged twice a week. […].
When the cells in the logarithmic growth phase reached the required number for the assay, the cells were harvested, and centrifuged at 1000 rpm for 5 min. The supernatant was removed. The cells were resuspended in culture medium, and counted using a cell counter. […]. After mixing well, the suspension was placed on ice and aspirated with a 1 ml sterile syringe. 0.2 ml of cell suspension was inoculated subcutaneously in the right armpit of each mouse. That is, each mouse was inoculated with 1×10^6 Ba/F3-TEL-FLT3-D835Y cells. After inoculation, the tumor growth was observed day by day. The mice were randomly grouped according to tumor volume when the average tumor volume reached about 175.77 mm^3. Mice were dosed according to their body weight (10 μL/g).
After the start of dosing, the body weight and tumor size of the mice were measured twice a week. Tumor volume was calculated according to the formula: Tumor volume (mm^3)=½×(a×b^2) (where a represents the long diameter and b represents the short diameter).

For data set [5], the system named is human biphenotypic B bone marrow mononuclear leukemia cell MV4-11 subcutaneous xenograft tumor. The data set is described as follows: Inhibition of MV4-11 subcutaneous xenograft tumor in vivo. More on the design: species or system nude mice. The procedure:
In this assay, the anti-tumor effect of the compounds was evaluated using a nude mice model of subcutaneous xenograft tumor of human biphenotypic B bone marrow mononuclear leukemia cell MV4-11.
Human biphenotypic B bone marrow mononuclear leukemia cell MV4-11 was cultured in vitro in suspension with a RPMI1640 medium supplemented with 10% fetal bovine serum, 100 U/mL penicillin and 100 μg/mL streptomycin in a 5% CO2 cell incubator at 37° C. Routine passaging was performed twice a week. Cells in the logarithmic growth phase were collected, counted and then used for inoculation.
0.2 mL (1×10^7) of MV4-11 cells (plus matrigel, with a volume ratio of 1:1) were inoculated subcutaneously on the right back of each mouse. The grouping and dosing were started when the average tumor volume reached about 140-200 mm^3.
The diameter of the tumor was measured with vernier calipers twice a week. The formula for calculating the tumor volume is: V=0.5a×b^2, where a and b represent the long and short diameters of the tumor, respectively.

Data set [6] is described as follows: In vivo pharmacokinetic assay in mice. More on the design: species or system CD-1 male mice. The following applies: male, CD-1, mouse, plasma; for Tmax: read-out: Tmax; for Vd: read-out: Vdss. Here is the method:
CD-1 male mice aged 7 to 10 weeks were selected. The doses for intravenous and oral administration were 1 mg/kg and 2.5 mg/kg, respectively. The mice were fasted for at least 12 hours before the administration, and resumed feeding 4 hours after the administration. The mice had free access to water throughout the assay period.
as §1, with “4,” for “4, 6,”, “30” for “200”, “saphenous” for “jugular”

Data set [7] deals with human acute myeloma MOLM-13 cell line subcutaneous xenograft. The experiment in a line: Inhibition of Molm-13 subcutaneous xenograft tumor in vivo. More on the design: species or system NOD/SCID female mice. The following applies: for Average tumor volume Day 0: Day 0, before dosing; for % Inhibition rate on day 11 / % Inhibition rate on day 15 / Average tumor volume Day 11 / Average tumor volume Day 15: Oral, Once a day. Here is the method:
The purpose of this assay is to evaluate the pharmacodynamics of the compounds in the NOD/SCID female mice model of human acute myeloma MOLM-13 cell line subcutaneous xenograft.
MOLM-13 cells were cultured in RPMI-1640 medium containing 10% fetal bovine serum. The MOLM-13 cells were collected in the exponential growth phase, and resuspended in PBS to a suitable concentration for subcutaneous tumor inoculation in […].
The assay mice were inoculated with 5×10^6 MOLM-13 cells resuspended in 0.1 ml of PBS (0.1 ml per mouse) subcutaneously on the right back. Tumor growth was regularly observed. When the tumor grew to an average volume of 98 mm^3, the mice were randomly divided into groups and administered according to tumor size and body weight of the mice.
After the start of administration, the body weight and tumor size of the mice were measured three times a week. The formula for calculating the tumor volume is: tumor volume (mm^3)=½×(a×b^2) (where a represents the long diameter and b represents the short diameter).

Where [8] appears, read: Oral administration (2.5 mg/kg).
The mark [9] stands for this setting: male, SD, rat, plasma, Oral, 2.5 mg/kg.
The mark [10] stands for this setting: male, SD, rat, plasma, iv, Injection, 1 mg/kg.

Values after ≈ are worked out from the molar mass of the structure shown.

For orientation: Cmax means the maximum level reached in the sampled fluid or tissue. The term Tmax denotes the time at which the peak concentration occurs. For orientation: Solubility means how much of the substance goes into solution per volume. Regarding `CCc1nc(C(N)=O)c(Nc2ccc(N3CCC4(CCN(C)CC4)CC3)c(C)c2)nc1NC1CCOCC1`, the highest concentration (Cmax) in data set [1] came out at 527 nM; in data set [2] (Oral, 20 mg/kg) it was 483 nM. The F% in data set [1] was found to be 41.0%; in data set [2] (Oral, 20 mg/kg) it was 93%. Also, the time of peak concentration (Tmax) in data set [1] stood at 9.00 h; in data set [2] (Oral, 20 mg/kg), 7.00 h. Further, the Solubility in data set [3] (Biological medium FaSSIF, 37° C.) is 110 µg/mL (≈ 211 µM); in data set [3] (Biological medium FeSSIF, 37° C.), 1110 µg/mL (≈ 2130 µM); in data set [3] (Biological medium SGF, 37° C.), 1490 µg/mL (≈ 2860 µM); in data set [3] (Buffer solution pH 1.0, 37° C.), over 10000 µg/mL; in data set [3] (Buffer solution pH 3.8, 37° C.), over 10000 µg/mL; in data set [3] (Buffer solution pH 4.5, 37° C.) it was over 10000 µg/mL. The Solubility in data set [3] (Buffer solution pH 5.5, 37° C.) is 810 µg/mL (≈ 1550 µM). The “Average tumor volume Day 0” value is on record as 176 ± 2 mm^3 in data set [4] (1 mg/kg group), 177 ± 2 mm^3 in data set [4] (3 mg/kg group) and 177 ± 2 mm^3 in data set [4] (6 mg/kg group). The entries for the “% Inhibition rate” value in data set [4] (1 mg/kg), in data set [4] (3 mg/kg) and in data set [4] (6 mg/kg) were 62%, 80% and 103%, respectively. Besides, the “Average tumor volume Day 15” value in data set [4] (1 mg/kg) is 1160 ± 99 mm^3; in data set [4] (3 mg/kg) it was 683 ± 45 mm^3; in data set [4] (6 mg/kg), 77 ± 13 mm^3.

Broadly, the AUC(0-t) is the area under the concentration-time curve up to a stated or last time point. By bioavailability is commonly meant dose-corrected exposure relative to a reference, in per cent. A higher bioavailability goes with much systemic uptake. In general, half-life refers to how long it takes for the measured level to halve. A higher half-life goes with slow decline. By clearance is commonly meant the rate of elimination divided by the concentration. As to `CCc1nc(C(N)=O)c(Nc2ccc(N3CCC(N4CCN(C)CC4)CC3)c(OC)c2)nc1NC1CCOCC1` [Compound B, reference compound], in data set [5] (1.5 mg/kg, Oral, Once a day), the “% Inhibition rate on day 14” value amounted to 57.7%. Moreover, the “Average tumor volume Day 14” value in data set [5] (1.5 mg/kg, Oral, Once a day, Day 14) is on record as 431 mm^3. For the same molecule, the “Average tumor volume Day 0” value in data set [5] (Day 0, one value for all groups, before dosing) was determined as 149 mm^3. Further, in data set [6] (setting [8]), the AUC(0-t) amounted to 0.501 µM·h, the concentration peaked (Cmax) at 85.3 nM, the bioavailability turned out to be 33.1% and the half-life is 5.59 h. For the same molecule, the Tmax in data set [6] (setting [8]) was 1 h. For the same molecule, in data set [6] (iv, Injection (1 mg/kg)), the exposure AUC(0-t) came to 0.605 µM·h, the clearance stood at 46.7 mL/min/kg, the half-life was 2.09 h and the Vd is 7.47 L/kg. In data set [2] (setting [9]), this molecule came in with an area under the curve AUC(0-t) of 0.361 µM·h, a Cmax of 29.1 nM and a bioavailability of 24.6%. The time of peak concentration (Tmax) in data set [2] (male, SD, rat, plasma, Oral, 2.5 mg/kg, read-out: Tmax) worked out at 6 h. Further, in data set [2] (setting [10]), the area under the curve AUC(0-t) worked out at 0.587 µM·h, the clearance is 44 mL/min/kg and the half-life was 2.73 h. For the same molecule, in data set [2] (male, SD, rat, plasma, iv, Injection, 1 mg/kg, read-out: Vdss), the Vd was 10.2 L/kg. The “Average tumor volume Day 0” value in data set [7] (15 mg/kg group) was determined as 98.02 mm^3. Moreover, in data set [7] (15 mg/kg), the “% Inhibition rate on day 11” value was 59%, the “% Inhibition rate on day 15” value was found to be 79%, the “Average tumor volume Day 11” value stood at 401.07 mm^3 and the “Average tumor volume Day 15” value was determined as 566.95 mm^3. For the same molecule, the “Average tumor volume Day 0” value in data set [4] (3 mg/kg group) stood at 176 ± 2 mm^3. Besides, in data set [4] (3 mg/kg), the “% Inhibition rate” value is given as 68% and the “Average tumor volume Day 15” value is on record as 993 ± 79 mm^3.

Regarding `CCc1nc(C(N)=O)c(Nc2ccc(N3CCC4(CCN(C)CC4)CC3)c(C)c2)nc1NC1CCOCC1` [Compound of formula (I)], the “Average tumor volume Day 0” value in data set [7] (15 mg/kg group) stood at 98.34 mm^3. Besides, in data set [7] (15 mg/kg), the “% Inhibition rate on day 11” value was 92%, the “% Inhibition rate on day 15” value came out at 94%, the “Average tumor volume Day 11” value was 156.85 mm^3 and the “Average tumor volume Day 15” value is on record as 223.09 mm^3. The “Average tumor volume Day 0” value in data set [7] (50 mg/kg group) is 98.05 mm^3. In addition, in data set [7] (50 mg/kg), the “% Inhibition rate on day 11” value came to 106%, the “% Inhibition rate on day 15” value is on record as 104%, the “Average tumor volume Day 11” value was 53.08 mm^3 and the “Average tumor volume Day 15” value stood at 0 mm^3.

With `CCc1nc(C(N)=O)c(Nc2ccc(N3CCC4(CCN(C)CC4)CC3)c(OC)c2)nc1NC1CCOCC1` [Compound A], in data set [6] (setting [8]), the AUC(0-t) was 0.0745 µM·h, the highest level (Cmax) was 13.4 nM, the bioavailability worked out at 7.39% and the half-life was 7.57 h. For the same molecule, in data set [6] (setting [8]), the Tmax is 1 h. In data set [6] (iv, Injection (1 mg/kg)), the AUC(0-t) is 0.403 µM·h, the clearance worked out at 73.4 mL/min/kg, the half-life is 2.13 h and the Vd is 8.93 L/kg.
